Reference: US12139556B2, “Insect neuropeptides 6” (Solasta Bio Limited, priority 2022, dated 2024)

Legend:
Assay type in all cases: in vivo
Myzus persicae [1] = test: Field trials by third-party organisations
Protocol: (§1) Field trials for peptide SB-P-65, unformulated, against various insects were conducted by third-party organisations PGRO and AgriScience.

Aphis gossypii = test: Field trials (AgriScience) on cotton and melon, naturally infested
Protocol: as §1

Aphis fabae = test: Field trials (PGRO) on vining peas, naturally infested
Protocol: as §1

bees = test: Bee oral toxicity test adapted from OECD Test No. 247 (Bumblebee, Acute Oral Toxicity Test); settings: % survival after 96 hours of application; FIG. 10
Protocol: Bee oral testing protocol was carried out adapted from OECD Test No. 247: Bumblebee, Acute Oral Toxicity Test. The toxicity of SB-P-65 was compared with a negative control of sucrose or vehicle, and with a current commercial insecticide Imidacloprid.

Myzus persicae [2] = test: Leaf dip assay (IRAC susceptibility test method 019), mortality assessment; settings: unformulated or with Silwet-408 adjuvant; mortality assessed at 72, 96 and 120 hours; FIGS. 6-8
Protocol: The assay was carried out based on IRAC susceptibility test method 019 (irac-online.org/methods/aphids-adultnymphs/).
Fill a small 4 cm wide 3 cm high dish with a 1% agar treatment solution of the active chemical or control (ensuring 1 cm gap between the agar and the lid) and leave to set. Dip a 2.5 cm leaf disc into 3 ml of treatment solution allowing the treatment to coat the leaf. Leave the disc to dry for 1 hour and place onto the set agar. Place insects (M. persicae aphids) onto each of the leaf discs. Each unit is sealed with a close-fitting, ventilated lid. Place the agar dishes in a small plastic tray lined with moist tissue paper and ensure the water trays in the bottom of the incubator are filled with clean water and place within the incubator. An assessment of mortality is made at 72, 96 and 120 hours. Leaf dip assays were performed with SB-P-65, and compared to a negative control vehicle and a current commercial insecticide Spirotetramat. The activity of SB-P-65 is shown in FIGS. 6-8; SB-P-65 has good activity whilst being eco-friendly and targeted to specific pests unlike broad spectrum chemical insecticides such as Spirotetramat.

[3] = versus Stealth/Aphox, Teppeki/Aphox, Profil Extra, Hallmark Zeon

For `CC(C)[C@H](NC(=O)[C@@H](NC(=O)[C@H](CCCCN)NC(=O)[C@H](CCC(N)=O)NC(=O)[C@@H](N)CCCNC(=N)N)[C@@H](C)O)C(=O)N[C@@H](Cc1ccccc1)C(=O)N[C@@H](CO)C(=O)N[C@@H](CO)C(=O)N[C@@H](Cc1c[nH]c2ccccc12)C(=O)NCC(N)=O` [SB-P-65, [Hy]-RQKTVFSSWG-[NH2]], the “efficacy in field trials against Myzus persicae” value (Myzus persicae [1]; unformulated, real-world conditions) was “good efficacy”, the “efficacy relative to commercial insecticides, Myzus persicae field trials” value (Myzus persicae [1]; [3]) was “comparably to commercial insecticides” and the “efficacy in field trials against Aphis gossypii” value (Aphis gossypii; unformulated, cotton, melon, real-world conditions, FIGS. 12, 13) was “good efficacy”. For the same compound, the “efficacy relative to commercial insecticides, Aphis gossypii field trials” value (Aphis gossypii; [3]) was “comparably to commercial insecticides”, the “efficacy in field trials against Aphis fabae” value (Aphis fabae; unformulated, vining peas, real-world conditions, FIGS. 11, 14) was “good efficacy” and the “efficacy relative to commercial insecticides, Aphis fabae field trials” value (Aphis fabae; [3]) was “comparably to commercial insecticides”. The “toxicity to bees (oral), compared to Imidacloprid” value (bees) was “far lower toxicity” and the “activity against Myzus persicae (mortality) in leaf dip assay” value (Myzus persicae [2]) was “good activity”.
